pIC50: −log10 of the molar value. A value given as a limit tells only on which side of the number the result lay.

This experiment deals with T1, Human MTHFD2 (Homo sapiens, UniProt P13995).
T1 construct: residues 36-350 in Uniport ID P13995; His6 (N); made in house; host or cells: E. coli
T1 sequence (P13995 36-350): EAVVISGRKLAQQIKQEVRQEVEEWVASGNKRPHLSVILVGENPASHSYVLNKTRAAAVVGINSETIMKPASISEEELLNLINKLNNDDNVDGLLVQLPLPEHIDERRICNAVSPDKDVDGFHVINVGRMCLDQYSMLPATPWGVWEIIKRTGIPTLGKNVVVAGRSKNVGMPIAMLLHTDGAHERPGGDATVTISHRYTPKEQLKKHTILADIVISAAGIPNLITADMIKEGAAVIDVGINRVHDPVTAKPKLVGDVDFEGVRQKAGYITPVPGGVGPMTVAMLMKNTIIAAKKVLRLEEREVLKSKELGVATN
Kind of experiment: MTHFD2 Activity Assay (dehydrogenase activity, diaphorase/resazurin coupled fluorescence). In kind it is biochemical. The conditions noted are these: inhibitory activity (IC50 and/or binding constant); 0.2 nM MTHFD2, 11 concentrations. The essentials: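 Resorufin fluorescence (ex 525, em 598 nm) reports NADH formed by the dehydrogenase via diaphorase coupling. Enzyme (0.2 nM, residues 36-350, N-His6) sat with compound 15 min before 70 μM CH2-THF and 1 mM NAD+ started a 30 min reaction. IC50s come from 4-parameter fits over 11 concentrations.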
For orientation: Alamar Blue is a resazurin reagent that responds to reducing activity.
For orientation: pIC50 means −log10 of the IC50, conventionally taken in molar units. Consider `Cn1c(Nc2ccc3c(c2)C(CCO)CC3)nc2c1c(=O)n(Cc1ccc(Cl)c(Cl)c1)c(=O)n2C` (stereo not drawn) [Example 323, 1-(3,4-dichlorobenzyl)-8-((3-(2-hydroxyethyl)-2,3-dihydro-1H-inden-5-yl)amino)-3,7-dimethyl-1H-purine-2,6(3H,7H)-dione], for which the pIC50 was 5.30 to 6.00.
The figure for `CCOC(=O)Cc1nc2c(c(=O)n(Cc3ccc(Cl)c(Cl)c3)c(=O)n2C)n1C` [Example 162, ethyl 2-(1-(3,4-dichlorobenzyl)-3,7-dimethyl-2,6-dioxo-2,3,6,7-tetrahydro-1H-purin-8-yl)acetate] is 5.00 to 5.30.
`Cn1c(NS(C)(=O)=O)nc2c1c(=O)n(Cc1cc3c(Cl)cccc3[nH]1)c(=O)n2C` [Example 336, N-[1-[(4-chloro-1H-indol-2-yl)methyl]-3,7-dimethyl-2,6-dioxo-purin-8-yl]methanesulfonamide]: the pIC50 was 6.00 to 8.00.
Regarding `Cn1c(N[C@H]2C[C@H](CO)C2)nc2c1c(=O)n(Cc1cc3c(Cl)cccc3[nH]1)c(=O)n2C` [Example 305, 1-((4-chloro-1H-indol-2-yl)methyl)-8-((1R,3R)-3-(hydroxymethyl)cyclobutylamino)-3,7-dimethyl-1H-purine-2,6(3H,7H)-dione], the pIC50 is 6.00 to 8.00.
`Cc1cccc2[nH]c(Cn3c(=O)c4c(nc(Nc5ccncc5)n4C)n(C)c3=O)c(C)c12` [Example 419, 1-((3,4-dimethyl-1H-indol-2-yl)methyl)-3,7-dimethyl-8-(pyridin-4-ylamino)-1H-purine-2,6(3H,7H)-dione] had a pIC50 of 6.00 to 8.00.
Take `Cn1c(Nc2ccc(Cl)nc2)nc2c1c(=O)n(Cc1cc3c(Cl)cccc3[nH]1)c(=O)n2C` [Example 381, 1-((4-chloro-1H-indol-2-yl)methyl)-8-(6-chloropyridin-3-ylamino)-3,7-dimethyl-1H-purine-2,6(3H,7H)-dione]: the pIC50 was 6.00 to 8.00.
`Cn1c(NCCCO)nc2ncn(Cc3ccc(Cl)c(Cl)c3)c(=O)c21` [Example 167, 1-[(3,4-dichlorophenyl)methyl]-8-[(3-hydroxypropyl)amino]-7-methyl-6,7-dihydro-1H-purin-6-one] showed a pIC50 below 5.00.
The value for `C[C@@H](Nc1nc2c(c(=O)n(Cc3ccc(Cl)c(Cl)c3)c(=O)n2C)n1C)C(=O)O` [Example 129, (R)-2-(1-(3,4-dichlorobenzyl)-3,7-dimethyl-2,6-dioxo-2,3,6,7-tetrahydro-1H-purin-8-ylamino)propanoic acid] was 5.30 to 6.00.
In the case of `Cn1c(N[C@H]2CCNC2)nc2c1c(=O)n(Cc1ccc(Cl)c(Cl)c1)c(=O)n2C` [Example 61, 1-[(3,4-dichlorophenyl)methyl]-3,7-dimethyl-8-{[(3S)-pyrrolidin-3-yl]amino}-2,3,6,7-tetrahydro-1H-purine-2,6-dione], the pIC50 was 5.30 to 6.00.
Turning to `Cn1c(NC2CCCNC2=O)nc2c1c(=O)n(Cc1ccc(Cl)c(Cl)c1)c(=O)n2C` (racemic) [Example 89, (±)-1-[(3,4-dichlorophenyl)methyl]-3,7-dimethyl-8-[(2-oxopiperidin-3-yl)amino]-2,3,6,7-tetrahydro-1H-purine-2,6-dione], the pIC50 is 6.00 to 8.00.
In turn, `CNC(C)c1nc2c(c(=O)n(Cc3cc4c(Cl)cccc4[nH]3)c(=O)n2C)n1C` (stereo not drawn) [Example 438, 1-[(4-chloro-1H-indol-2-yl)methyl]-3,7-dimethyl-8-[1-(methylamino)ethyl]purine-2,6-dione] gave a pIC50 of 6.00 to 8.00.
As for `Cn1c(NC[C@@H](O)CO)nc2c1c(=O)n(Cc1ccc(Cl)c(Cl)c1)c(=O)n2C` [Example 13, 1-[(3,4-dichlorophenyl)methyl]-8-{[(2R)-2,3-dihydroxypropyl]amino}-3,7-dimethyl-2,3,6,7-tetrahydro-1H-purine-2,6-dione], the pIC50 is 6.00 to 8.00.
Regarding `Cn1c(Nc2ccncc2)nc2c1c(=O)n(Cc1[nH]c3ccccc3c1Cl)c(=O)n2C` [Example 311, 1-((3-chloro-1H-indol-2-yl)methyl)-3,7-dimethyl-8-(pyridin-4-ylamino)-1H-purine-2,6(3H,7H)-dione], the pIC50 was 6.00 to 8.00.
Turning to `Cn1c(Cn2c(=O)c3c(nc(N4CC(O)C4)n3C)n(C)c2=O)cc2cc(Cl)ccc21` [Example 197, 1-((5-chloro-1-methyl-1H-indol-2-yl)methyl)-8-(3-hydroxyazetidin-1-yl)-3,7-dimethyl-1H-purine-2,6(3H,7H)-dione], the pIC50 was 6.00 to 8.00.
The value for `Cn1c(Cn2c(=O)c3c(nc(Nc4cccnn4)n3C)n(C)c2=O)cc2cc(Cl)ccc21` [Example 203, 1-((5-chloro-1-methyl-1H-indol-2-yl)methyl)-3,7-dimethyl-8-(pyridazin-3-ylamino)-1H-purine-2,6(3H,7H)-dione] was 5.00 to 5.30.
The value for `Cn1c(N2CC(O)C2)nc2c1c(=O)n(Cc1cc3cc(Cl)ccc3[nH]1)c(=O)n2C` [Example 199, 1-((5-chloro-1H-indol-2-yl)methyl)-8-(3-hydroxyazetidin-1-yl)-3,7-dimethyl-1H-purine-2,6(3H,7H)-dione] was 5.30 to 6.00; that for `Cn1c(N[C@H]2CC[C@H](O)C2)nc2c1c(=O)n(Cc1ccc(Cl)c(Cl)c1)c(=O)n2C` (single isomer, unassigned) [Example 70, 1-(3,4-dichlorobenzyl)-8-((1S,3S)-3-hydroxycyclopentylamino)-3,7-dimethyl-1H-purine-2,6(3H,7H)-dione or 1-(3,4-dichlorobenzyl)-8-((1R,3R)-3-hydroxycyclopentylamino)-3,7-dimethyl-1H-purine-2,6(3H,7H)-dione] was 6.00 to 8.00.
The figure for `Cn1c(NC2CC(F)(F)C2)nc2c1c(=O)n(Cc1ccc(Cl)c(Cl)c1)c(=O)n2C` [Example 112, 1-(3,4-dichlorobenzyl)-8-(3,3-difluorocyclobutylamino)-3,7-dimethyl-1H-purine-2,6(3H,7H)-dione] is 5.30 to 6.00; for `Cn1c(N)nc2c1c(=O)n(Cc1ccc(Cl)c(Cl)c1)c(=O)n2C` [Example 153, 8-amino-1-(3,4-dichlorobenzyl)-3,7-dimethyl-1H-purine-2,6(3H,7H)-dione] it is 5.00 to 5.30.
`Cn1cnc2c1c(=O)n(Cc1cc3cc(Cl)ccc3[nH]1)c(=O)n2C` [Example 240, 1-((5-chloro-1H-indol-2-yl)methyl)-3,7-dimethyl-1H-purine-2,6(3H,7H)-dione] showed a pIC50 of 5.30 to 6.00.
The value for `Cn1c(NC2COC2)nc2c1c(=O)n(Cc1ccc(Cl)c(Cl)c1)c(=O)n2C` [Example 245, 1-(3,4-dichlorobenzyl)-3,7-dimethyl-8-(oxetan-3-ylamino)-1H-purine-2,6(3H,7H)-dione] was 6.00 to 8.00; that for `Cn1c(NC[C@@H]2CCCO2)nc2c1c(=O)n(Cc1ccc(C(F)(F)F)cc1)c(=O)n2C` [Example 105, (S)-3,7-dimethyl-8-((tetrahydrofuran-2-yl)methylamino)-1-(4-(trifluoromethyl)benzyl)-1H-purine-2,6(3H,7H)-dione] was below 5.00; that for `Cn1c(N[C@@H]2CCC[C@H](C(=O)O)C2)nc2c1c(=O)n(Cc1ccc(Cl)c(Cl)c1)c(=O)n2C` (single isomer, unassigned) [Example 187, (1S,3R)-3-(1-(3,4-dichlorobenzyl)-3,7-dimethyl-2,6-dioxo-2,3,6,7-tetrahydro-1H-purin-8-ylamino)cyclohexanecarboxylic acid or (1R,3S)-3-(1-(3,4-dichlorobenzyl)-3,7-dimethyl-2,6-dioxo-2,3,6,7-tetrahydro-1H-purin-8-ylamino)cyclohexanecarboxylic acid] was 6.00 to 8.00.
`Cn1c(C(N)c2ccncc2)nc2c1c(=O)n(Cc1cc3c(Cl)cccc3[nH]1)c(=O)n2C` (stereo not drawn) [Example 461, 8-(amino(pyridin-4-yl)methyl)-1-((4-chloro-1H-indol-2-yl)methyl)-3,7-dimethyl-1H-purine-2,6(3H,7H)-dione] gave a pIC50 of 6.00 to 8.00.
The molecule `Cn1c(N[C@H]2CCC[C@H]2O)nc2c1c(=O)n(Cc1cc3c(Cl)cccc3[nH]1)c(=O)n2C` [Example 347, 1-((4-chloro-1H-indol-2-yl)methyl)-8-((1S,2R)-2-hydroxycyclopentylamino)-3,7-dimethyl-1H-purine-2,6(3H,7H)-dione] showed a pIC50 of 6.00 to 8.00.
The figure for `Cn1c(Nc2ccncc2)nc2c1c(=O)n(Cc1cc3c(Cl)cccc3[nH]1)c(=O)n2C` [Example 285, 1-((4-chloro-1H-indol-2-yl)methyl)-3,7-dimethyl-8-(pyridin-4-ylamino)-1H-purine-2,6(3H,7H)-dione] is 6.00 to 8.00; for `Cn1c(=O)n(Cc2cc3c(Cl)cccc3[nH]2)c(=O)c2c1nc1n2CCNC1` [Example 476, 3-((4-chloro-1H-indol-2-yl)methyl)-1-methyl-6,7,8,9-tetrahydropyrazino[1,2-f]purine-2,4(1H,3H)-dione] it is 6.00 to 8.00; for `Cn1c(N[C@@H]2CCC[C@@H]2N)nc2c1c(=O)n(Cc1cc3c(Cl)cccc3[nH]1)c(=O)n2C` [Example 395, 8-((1R,2S)-2-aminocyclopentylamino)-1-((4-chloro-1H-indol-2-yl)methyl)-3,7-dimethyl-1H-purine-2,6(3H,7H)-dione] it is 5.30 to 6.00.
`Cn1c(Nc2ccncc2)nc2c1c(=O)n(Cc1cc3c(Br)cccc3[nH]1)c(=O)n2C` [Example 348, 1-((4-bromo-1H-indol-2-yl)methyl)-3,7-dimethyl-8-(pyridin-4-ylamino)-1H-purine-2, 6(3H,7H)-dione] gave a pIC50 of 5.00 to 5.30.
The value for `Cn1cnc2c1c(=O)n(Cc1ccc(Cl)c(Cl)c1)c(=O)n2C` [Example 152, 1-(3,4-dichlorobenzyl)-3,7-dimethyl-1H-purine-2,6(3H,7H)-dione] was 5.30 to 6.00.
